Reference: PubChem BioAssay (NCI)
“And” between values parts separate entries of the source, which are not always exact repeats. Equal entries are not always repeated.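 Cultured in 96-well plates, cells were exposed to test compound for 48 hours across five concentrations. Here, GI50 denotes the concentration required for 50% inhibition of growth. TGI: concentration producing complete growth inhibition.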

What was measured:
Experiment in all cases: inhibition of tumour cell growth, NCI panel, 48 h
RPMI-8226 leukemia = system: RPMI-8226 leukemia
SF-539 CNS = system: SF-539 CNS
MDA-MB-231 breast = system: MDA-MB-231 breast
RXF 393 renal = system: RXF 393 renal
SW-620 colon = system: SW-620 colon
SK-MEL-2 melanoma = system: SK-MEL-2 melanoma
LOX IMVI melanoma = system: LOX IMVI melanoma
HCT-15 colon = system: HCT-15 colon
A498 renal = system: A498 renal
ACHN renal = system: ACHN renal
OVCAR-4 ovarian = system: OVCAR-4 ovarian
MDA-MB-435 = system: MDA-MB-435
CCRF-CEM leukemia = system: CCRF-CEM leukemia
OVCAR-8 ovarian = system: OVCAR-8 ovarian
MCF7 breast = system: MCF7 breast
NCI-H226 lung = system: NCI-H226 lung
SR leukemia = system: SR leukemia

| SMILES | TGI (RPMI-8226 leukemia) | TGI (SF-539 CNS) | TGI (MDA-MB-231 breast) [µM] | TGI (RXF 393 renal) | TGI (SW-620 colon) | TGI (SK-MEL-2 melanoma) | TGI (LOX IMVI melanoma) | TGI (HCT-15 colon) | TGI (A498 renal) | TGI (ACHN renal) | TGI (OVCAR-4 ovarian) | TGI (MDA-MB-435) [µM] | TGI (CCRF-CEM leukemia) | TGI (OVCAR-8 ovarian) | TGI (MCF7 breast) [µM] | TGI (NCI-H226 lung) | GI50 (NCI-H226 lung) [µM] | GI50 (RPMI-8226 leukemia) [µM] | GI50 (SW-620 colon) | TGI (SR leukemia) [µM] |
| --- | --- | --- | --- | --- | --- | --- | --- | --- | --- | --- | --- | --- | --- | --- | --- | --- | --- | --- | --- | --- |
| O=C(NCCCCCCCCNC(=O)Nc1cccc2ccccc12)Nc1cccc2ccccc12 | > 100 µM | 24.6 µM | 23.3 | 67.6 µM | 47.3 µM | > 100 µM | 59.1 µM | > 100 µM | 34.7 µM | > 100 µM | 4.18 µM | 81.3 | 48.7 µM | > 100 µM | > 100 | – | – | – | – | – |
| COc1cc([C@@H]2c3cc4c(cc3[C@@H](NCc3ccccc3F)C3COC(=O)[C@@H]32)OCO4)cc(OC)c1O (stereo not given in full) | 13.1 µM | 16.2 µM | – | 54.7 µM | 39.1 µM | 49.8 µM | 16.7 µM | 22.4 µM | 19.7 µM | 4.28 µM | > 100 µM | – | > 100 µM | > 100 µM | – | 7.52 µM | – | – | – | – |
| CC(=O)NC(CCCNC(=O)N(C)N=O)C(=O)NCc1ccccc1 (stereo not given) | > 100 µM | > 100 µM | – | > 100 µM | > 100 µM | > 100 µM | > 100 µM | > 100 µM | > 100 µM | > 100 µM | > 100 µM | – | > 100 µM | > 100 µM | – | > 100 µM | – | – | – | – |
| N=S(c1ccccc1[N+](=O)[O-])c1ccccc1[N+](=O)[O-] | 4.47 µM and 18.8 µM | 6.9 µM and 9.89 µM | 3.4 | 5.6 µM and 14.4 µM | 2.95 µM and 10 µM | 7.97 µM and 9.86 µM | 1.68 µM and 2.58 µM | 2.06 µM and 3.72 µM | 43.5 µM and 32.2 µM | 3.22 µM and 3.61 µM | 2.05 µM and 1.11 µM | – | 7.79 µM and 2.7 µM | 5.4 µM and 13.1 µM | 0.266 | 12.3 µM and 30.1 µM | 12.6 | 3.93 | 1.14 µM and 2.47 µM | – |
| CC(=O)C1C(=O)C(=O)N(c2ccc([N+](=O)[O-])cc2[N+](=O)[O-])C1=O (stereo not given) | – | > 100 µM | > 100 | > 100 µM | > 100 µM | > 100 µM | > 100 µM | > 100 µM | – | > 100 µM | > 100 µM | > 100 | > 100 µM | > 100 µM | > 100 | > 100 µM | – | – | – | – |
| Cc1ccc(C(=O)NC2CCCCC2)cc1N=NN(C)C | – | > 100 µM | – | – | > 100 µM | > 100 µM | > 100 µM | > 100 µM | – | > 100 µM | > 100 µM | – | – | > 100 µM | – | – | – | – | – | – |
| COC(=O)/C=C1\CCC2[C@@H](C(=O)CC3[C@]2(C)CCC[C@@]3(C)C(=O)OC)C1C (stereo not given in full) | 19.9 µM | 61.1 µM | – | – | 64.1 µM | 39.4 µM | – | > 100 µM | 99.7 µM | 63.9 µM | 78.8 µM | – | 38.1 µM | 50.5 µM | – | 56.6 µM | – | – | – | – |
| Cc1ccc(NC(=O)C2C3C=CC(O3)C2C(=O)O)cc1 (stereo not given) | 54.7 µM | > 100 µM | – | 80.1 µM | 26.8 µM | > 100 µM | 47.4 µM | > 100 µM | > 100 µM | > 100 µM | > 100 µM | – | > 100 µM | > 100 µM | – | > 100 µM | – | – | – | > 100 |
| Cc1ccc(S(=O)(=O)C2=Cc3ccccc3C2(O)c2ccccc2)cc1 (stereo not given) | 44.7 µM | 47.5 µM | 33.3 | – | > 100 µM | 31.4 µM | 34.2 µM | > 100 µM | > 10 µM | > 100 µM | – | 69.9 | 38.1 µM | 81.2 µM | – | 64.5 µM | – | – | – | 92 |
| O=C(O)CCC(NC(=O)c1ccc(Oc2nc3ccccc3nc2C(=O)O)cc1)C(=O)O (stereo not given) | > 100 µM | – | > 100 | > 100 µM | > 100 µM | > 100 µM | > 100 µM | > 100 µM | > 100 µM | > 100 µM | > 100 µM | > 100 | > 100 µM | > 100 µM | – | > 100 µM | – | – | – | > 100 |
| CCc1cccc(C(C)C)c1NC(=O)/C(=N\NC(N)=O)C(C(=O)OC)c1cnc2ccccc2n1 (stereo not given) | – | > 100 µM | – | > 100 µM | > 100 µM | > 100 µM | > 100 µM | > 100 µM | > 100 µM | > 100 µM | > 100 µM | – | > 100 µM | > 100 µM | – | > 100 µM | – | – | – | > 100 |
| N#C/C(c1nc2ccccc2[nH]1)=c1\s/c(=C/c2ccccc2)c(=O)n1-c1ccccc1 | > 100 µM | > 100 µM | – | – | > 100 µM | > 100 µM | > 100 µM | > 100 µM | > 100 µM | > 100 µM | > 100 µM | – | > 100 µM | > 100 µM | – | > 100 µM | – | – | – | > 100 |
| Cc1cc(Cl)ccc1NC(=O)/C(=N\NC(C)(C)C)C(C#N)c1nc(-c2ccc([N+](=O)[O-])cc2)cs1 (stereo not given) | > 100 µM | > 100 µM | – | – | > 100 µM | > 100 µM | > 100 µM | > 100 µM | > 100 µM | > 100 µM | > 100 µM | – | > 100 µM | > 100 µM | – | > 100 µM | – | – | – | > 100 |
| N#CC(NNC(=O)Cc1ccccc1)c1ccc([N+](=O)[O-])cc1 (stereo not given) | > 100 µM | > 100 µM | – | > 100 µM | > 100 µM | > 100 µM | > 100 µM | > 100 µM | – | > 100 µM | > 100 µM | – | > 100 µM | > 100 µM | – | > 100 µM | – | – | – | > 100 |
| CCOC(=O)c1cc(=O)c2cccc3c2n1CCS3 | – | > 100 µM | > 100 | – | > 100 µM | > 100 µM | > 100 µM | > 100 µM | > 100 µM | > 100 µM | – | > 100 | > 100 µM | > 100 µM | > 100 | > 100 µM | – | – | – | – |
| CC(=O)NC(CCCCNCc1ccccc1)C(=O)NCc1ccccc1 (stereo not given) | > 100 µM | > 100 µM | – | > 100 µM | > 100 µM | > 100 µM | > 100 µM | > 100 µM | > 100 µM | > 100 µM | > 100 µM | – | > 100 µM | > 100 µM | – | > 100 µM | – | – | – | – |
| O=C1C(Cl)C(c2ccccc2Cl)N1n1cnc2ccccc2c1=O (stereo not given) | > 100 µM | – | – | 67.3 µM | > 100 µM | 68.4 µM | > 100 µM | > 100 µM | – | > 100 µM | > 100 µM | – | > 100 µM | > 100 µM | – | 91.4 µM | – | – | – | > 100 |
